Measurements: patent US20250250251A1, “PIPERIDINYLPYRIDINYLCARBONITRILE DERIVATIVES AS INHIBITORS OF GLUTAMINYL-PEPTIDE CYCLOTRANSFERASE AND GLUTAMINYL-PEPTIDE CYCLOTRANSFERASE LIKE PROTEIN” (Boehringer Ingelheim International GmbH, priority 2024, published 2025)
Read-outs that look alike come from different tables or passages of the source.

Legend:
[1] = Assay C: permeability in CACO-2 cells; type: in vitro ADME; conditions: human, Caco-2, pH 7.2
How it was run: (§1)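 Caco-2 monolayers were grown 10–25 days on porous filter inserts. Compound was applied to the apical or basolateral donor side for A-B or B-A transport (3 filters), and the receiver was sampled for up to 2 h. Quantitation was by HPLC-MS/MS or scintillation; efflux ratio = B-A/A-B permeability.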

CACO-2 cells = test: Assay C: permeability in CACO-2 cells; type: in vitro ADME; conditions: pairs with and without 4-fluoropiperidyl, CACO2 cells
How it was run: as §1

murine hepatocytes = test: Assay E: stability in murine hepatocytes; type: in vitro ADME, mouse; conditions: Table 13, prior art compounds, 1 μM, 5% species serum
How it was run: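 Cryopreserved mouse hepatocytes, typically 1 Mio cells/mL in medium with 5% species serum, were dosed at 1 μM compound (0.05% DMSO) at 37 °C and sampled over 0–6 h. Parent decline was measured by HPLC-MS/MS and CLint calculated from dose/AUC, then scaled by well-stirred liver model.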

[2] = system: SIRPα signalling induced by A549 cells; test: Assay B: SIRPα signalling assay using A549 cells; type: cell-based; conditions: Homo sapiens, Table 5, prior art compounds, read-out: Inhibition of SIRPα signalling induced by A549 cells: IC50
How it was run: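 Raji or A549 cells (5000/well) were each incubated with serially diluted compound for 48 h at 37 °C. Jurkat PathHunter SIRPαV1 reporter cells (15000/well) were then added for 5 h. Beta-galactosidase luminescence gave IC50 via a 4-parameter sigmoidal fit.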

isolated QPCTL [3] = target: T1, isolated QPCTL (Homo sapiens, UniProt Q9NXS2); conditions: as disclosed in WO 2024/020517; read-out: Inhibitory activity on isolated QPCTL, IC50; cited from earlier work
[4] = system: SIRPα signalling induced by Raji cells; test: Assay B: SIRPα signalling assay using Raji cells; type: cell-based; conditions: Homo sapiens, Table 5, prior art compounds, read-out: Inhibition of SIRPα signalling induced by Raji cells: IC50
How it was run: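 SIRPα signalling induced by Raji cells in a PathHunter reporter line, read as β-galactosidase complementation luminescence. Detection reagent 1 added for 15 min, then reagent 2 for 60 min in the dark, both at room temperature.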

isolated QPCTL [5] = target: T1, isolated QPCTL; conditions: as disclosed in WO 2023/205173; read-out: inhibitory activity on isolated QPCTL, IC50; cited from earlier work
CYP3A4 mRNA = test: Assay D: CYP induction screening assay in primary human hepatocytes; type: in vitro ADME; conditions: Table 10, prior art compounds, 48 h
How it was run: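 Single-donor cryopreserved human hepatocytes on collagen with Matrigel overlay were exposed to test compound at […] (0.1% DMSO) for 48 h, medium renewed at 24 h. CYP3A4 mRNA quantified by QuantiGene Plex/Luminex, normalised to geometric mean of RPL32, EIF4E2, GUSB and expressed relative to solvent control.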

QPCTL = target: T2, QPCTL (Homo sapiens, UniProt Q9NXS2); test: Assay A: biochemical QPCTL activity assay (MALDI-TOF MS, CD47 peptide substrate); conditions: Table 3, prior art compounds, read-out: Inhibition of QPCTL: IC50
T2 construct: made in house
How it was run: (§2)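 Enzyme and compound pre-incubated 10 min at 24° C in 20 mM Tris pH 7.5 with TCEP, BSA, Tween20, then 40 min with CD47 peptide (10 μM for QPCTL, 20 μM for QPCT). Pyroglutamate product/internal standard ratio by MALDI-TOF MS, normalized to controls; four-parameter logistic fit.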

QPCT = target: T3, QPCT (Homo sapiens, UniProt Q16769); test: Assay A: biochemical QPCT activity assay (MALDI-TOF MS, CD47 peptide substrate); conditions: Table 3, prior art compounds, read-out: Inhibition of QPCT: IC50
T3 construct: purchased Origine (OriGene) TP700028
How it was run: as §2

[6] = pairs with and without 4-fluoropiperidyl, CACO2 cells, read-out: Efflux ratio (BA/AB)

T2 sequence (Q9NXS2 whole entry, species assumed): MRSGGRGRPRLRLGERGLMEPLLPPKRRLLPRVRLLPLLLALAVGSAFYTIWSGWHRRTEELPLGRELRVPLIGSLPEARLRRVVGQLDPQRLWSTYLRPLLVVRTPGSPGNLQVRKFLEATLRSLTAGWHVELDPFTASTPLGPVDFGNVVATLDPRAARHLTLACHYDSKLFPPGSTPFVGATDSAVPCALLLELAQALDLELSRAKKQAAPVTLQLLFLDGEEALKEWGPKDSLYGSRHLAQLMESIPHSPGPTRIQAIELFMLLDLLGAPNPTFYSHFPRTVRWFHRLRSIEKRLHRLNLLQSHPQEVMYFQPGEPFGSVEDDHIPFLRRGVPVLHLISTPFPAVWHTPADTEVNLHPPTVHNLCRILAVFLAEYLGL
T1 sequence (Q9NXS2 whole entry): as the sequence (Q9NXS2 whole entry, species assumed) above
T3 sequence (Q16769 29-361): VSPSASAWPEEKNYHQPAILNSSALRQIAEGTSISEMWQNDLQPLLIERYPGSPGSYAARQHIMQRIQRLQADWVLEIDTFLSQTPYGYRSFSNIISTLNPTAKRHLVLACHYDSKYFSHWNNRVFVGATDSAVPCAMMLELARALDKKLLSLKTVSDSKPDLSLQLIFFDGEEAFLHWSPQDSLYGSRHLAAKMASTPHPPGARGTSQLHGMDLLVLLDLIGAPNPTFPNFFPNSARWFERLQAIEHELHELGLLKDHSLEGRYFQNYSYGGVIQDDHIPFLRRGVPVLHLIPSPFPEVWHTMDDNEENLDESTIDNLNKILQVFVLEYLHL

Compound	efflux ratio [1, 6]	CACO2 Perm. (CACO-2 cells)	Mouse Hepatocyte Stability QH (murine hepatocytes)	IC50 [2]	IC50 (isolated QPCTL [3])	IC50 [4]	IC50 (isolated QPCTL [5])	n-fold induction of CYP3A4 at 10 μM (CYP3A4 mRNA)	Papp A→B [1]	efflux ratio ([1]; read-out: Efflux Ratio)	IC50 (QPCTL)	IC50 (QPCT)
Cn1cnnc1C1CCN(c2c(C#N)cc(F)cc2-c2cnc3nn(C(C)(C)C)c(C(F)(F)F)c3c2)CC1	5.7	17.0 10^−6 cm/sec										
Cn1cnnc1C1(F)CCN(c2c(C#N)cc(F)cc2-c2cnc3nn(C(C)(C)C)c(C(F)(F)F)c3c2)CC1	0.8	51.0 10^−6 cm/sec										
Cn1cnnc1C1CCN(c2c(C#N)cccc2-c2ccc(F)nc2)CC1 [(1)/QP5020, reference compound]		28.0 10^−6 cm/sec	83%	0.008 µM								
Cn1cnnc1C1CCN(c2c(C#N)cccc2-c2ccnnc2)CC1 [Compound 11]		0.3 10^−6 cm/sec		0.07 µM	< 0.1 µM							
Cn1c(N)nnc1C1CCN(c2c(C#N)cccc2-c2ccc(F)nc2)CC1 [Compound 14, reference compound]			33%	0.004 µM		0.004 µM	< 1 µM	1.9 n-fold				
Cn1cc2c(-c3cccc(C#N)c3N3CCC(c4nncn4C)CC3)cncc2n1 [Compound 16, reference compound]			61%	0.396 µM	< 0.1 µM	0.778 µM		1.5 n-fold	< 6 nm/s	> 21.7	0.01 µM	0.024 µM
COc1ccc(-c2ccnnc2)c(N2CCC(c3nncn3C)CC2)c1C#N [Compound 26, reference compound]			19%	0.208 µM	< 0.1 µM	0.452 µM		1.1 n-fold	< 0.2 nm/s	> 135	0.001 µM	0.002 µM
Cn1cnnc1C1CCN(c2c(C#N)cccc2-c2cnc3nccn3c2)CC1 [Compound 93, reference compound]			26%	0.356 µM	< 0.1 µM	1.38 µM		0.8 n-fold	< 0.4 nm/s	> 40	0.001 µM	0.005 µM
COc1ccc(-c2cnc3nccn3c2)c(N2CCC(c3nncn3C)CC2)c1C#N [Compound 94, reference compound]			30%	1.3 µM	< 0.1 µM	2.04 µM		<1 n-fold	< 14 nm/s	> 0.8	0.001 µM	0.003 µM
Cn1cnnc1C1CCN(c2c(C#N)cccc2-c2cnc3[nH]nc(O)c3c2)CC1 [Compound 113, reference compound]			<12%	4.24 µM	< 0.1 µM	> 10 µM		<1 n-fold	< 7.8 nm/s	> 5	0.149 µM	0.164 µM
Cn1cnnc1C1(F)CCN(c2c(C#N)cccc2-c2ccnnc2)CC1 [Example 52 in EP 22216126.7]		15.0 10^−6 cm/sec										
Cn1cnnc1C1(F)CCN(c2c(C#N)cccc2-c2ccc(F)nc2)CC1 [Example 56 in EP 23161417.3]		50.0 10^−6 cm/sec										
Cn1cnnc1C1(F)CCN(c2c(C#N)cccc2-c2cnc3nn(C(C)(C)C)cc3c2)CC1 [Example 62 in EP 22216126.7]		4.9 10^−6 cm/sec										
